Data: patent US5541187A, “6-heterocycyclyl pyrazolo[3,4-d]pyrimidin-4-ones and compositions and method of use thereof” (Sterling Winthrop Inc., priority 1993, dated 1996)
Where “and” joins values, the source holds several entries; their conditions need not be identical. Equal entries are not always repeated. Structures can show the parent of a compound that is named as a salt.

How the values were obtained:
[1] = test system: Spontaneously hypertensive rats (SHR); assay: Antihypertensive activity in conscious spontaneously hypertensive rats (SHR), iv; type: in vivo; details: Rattus norvegicus, 5 min; for change in vivo at 3 mg/kg / change in vivo at 10 mg/kg / change in vivo at 1 mg/kg: 5 minutes after dose, cumulative dosing, read-out: % change in mean arterial pressure; for ED25: read-out: ED25 (mean arterial pressure)
Protocol: After a 2 day recovery from surgery, three baseline blood pressure measurements were made at 5 min intervals in conscious SHR. Compounds to be tested or vehicle were then administered intravenously in a dose-dependent manner (0.3-10 mg base/kg) while arterial pressure was recorded continuously on a polygraph. The mean arterial pressure response was measured 5 minutes after the administration of each dose of the test compound and the next dose given in a cumulative dose fashion. The response to each dose of the test compound was calculated as the difference from the mean of the three baseline measurements.

[2] = test system: cGMP-PDE I; assay: cGMP-PDE I inhibitory activity (cyclic nucleotide hydrolysis, isolated PDE isozyme); type: biochemical, various animal species and man; details: for IC50: values marked * are from two separate experimental runs
Protocol: Multiple isozymic forms of cyclic nucleotide phosphodiesterase (PDE) have been identified in mammalian cells. […] Elevation of intracellular cGMP in vascular smooth muscle triggers a cascade of events that leads to a reduction in muscle tone while elevations in renal tubule cell cGMP stimulates natriuresis and diuresis. Vascular smooth muscle and renal cells contain a phosphodiesterase isozyme that has a low Km (1 μM) for the hydrolysis of cGMP. This isozyme has been referred to as the cGMP-PDE or cGMP-PDE I since it elutes from an anion-exchange sepharose resin in the first peak of PDE activity at a sodium acetate concentration between 150-200 mM. Thus inhibition of the cGMP-PDE isozyme is a viable subcellular mechanism by which increases in cGMP can produce a reduction in total peripheral resistance and a stimulation of natriuresis and diuresis. The development of cGMP-PDE inhibitors represents an approach for the discovery of agents useful for treating heart failure and hypertension. For example, compounds having high inhibitory potency for the cGMP-PDE are expected to lower blood pressure and induce natriuresis and diuresis.
The cGMP-PDE and other PDE isozymes were isolated from cardiovascular tissues (heart and aorta) of various animal species and man by anion-exchange and affinity chromatography as described by Silver et al., Sec. Messeng. Phos. 13:13-25, 1991; PDE activity, in the presence and absence of test compounds was determined essentially as described by Thompson et al., Adv. Cyclic Nucleotide Res. 10:69-92. To determine the potency and selectivity of compounds as PDE inhibitors, compounds are screened for their effect on cyclic nucleotide hydrolysis at 10 μM. If ≥50% inhibition of PDE activity is observed, an IC50 value (concentration of compound causing 50% reduction in PDE activity) and corresponding 95% confidence intervals are generated. The IC50 values are calculated from concentration-response curves as described by Tallarida and Murray, Manual of Pharmacologic Calculations with Computer Programs, Procedure 8, Graded Dose-response, pp. 14-19, Springer-Verlag, N.Y., 1981.

[3] = test system: Spontaneously hypertensive rats; assay: Procedure 2: in vivo reversal of nitroglycerin tolerance, mean arterial pressure; parameters: species or system rat (spontaneously hypertensive rats)
Protocol: Spontaneously hypertensive rats (16-19 weeks of age) were made nitroglycerin tolerant by injecting […] nitroglycerin s.c., 3-times/day for 3 days. While conscious and freely moving, the decrease in mean arterial pressure (MAP) in response to a challenge dose of nitroglycerin (10 μg/kg, i.v. bolus) was utilized to confirm tolerance.

Q: With `CCOc1cnccc1-c1nc2n(C3CCCC3)[nH]c(CC)c-2c(=O)n1` [Example 119d, 1-Cyclopentyl-3-ethyl-6-(3-ethoxy-4-pyridyl)pyrazolo[3,4-d]pyrimidin-4-one] as the compound, how does the change in vivo at 3 mg/kg [1] read?
A: -24%

Q: And the change in vivo at 10 mg/kg [1]?
A: -36%

Q: And the ED25 [1]?
A: 4.8 mg/kg

Q: And the “Percent Inhibition cGMP-PDE I” value ([2]; 0.1 μM)?
A: 90%

Q: What about the IC50 [2] of the same compound?
A: 1.6 nM

Q: `CCc1[nH]n(C2CCCC2)c2nc(-c3ccncc3OC)nc(=O)c1-2` [Example 128c, 1-Cyclopentyl-3-ethyl-6-(3-methoxy-4-pyridyl)pyrazolo[3,4-d]pyrimidin-4-one] was tested. Which change in vivo at 10 mg/kg [1] did it give?
A: -48%

Q: And the ED25 [1]?
A: 0.23 mg/kg

Q: What about the “Percent Inhibition cGMP-PDE I” value ([2]; 0.01 μM) of the same compound?
A: 54%

Q: And the “Percent Inhibition cGMP-PDE I” value ([2]; 0.1 μM)?
A: 71%

Q: What about the IC50 [2] of the same compound?
A: 36 nM

Q: Which results are given for `Cc1[nH]n(C2CCCC2)c2nc(-c3ccnc4ccccc34)nc(=O)c1-2` [Example 13b, 1-Cyclopentyl-3-methyl-6-(4-quinolinyl)-pyrazolo [3,4-d]-pyrimidin-4-one]?
A: change in vivo at 1 mg/kg [1]: -17%; change in vivo at 3 mg/kg [1]: -14%; IC50 [2]: 97 nM

Q: For `CCc1[nH]n(C2CCCC2)c2nc(-c3ccncc3OC(C)CC)nc(=O)c1-2` (stereo not drawn) [Example 132b, 1-Cyclopentyl-3-ethyl-6-(3-sec-butoxy-4-pyridyl)pyrazolo[3,4-d]pyrimidin-4-one], which change in vivo at 1 mg/kg [1] is on record?
A: -9%

Q: And the change in vivo at 3 mg/kg [1]?
A: -8%

Q: And the change in vivo at 10 mg/kg [1]?
A: -12%

Q: What about the “Percent Inhibition cGMP-PDE I” value ([2]; 0.01 μM) of the same compound?
A: 90%

Q: For `CCc1nn(C2CCCC2)c2nc(-c3ccncc3)[nH]c(=O)c12` [Example 75], which ED25 [1] is on record?
A: 1.7 mg/kg

Q: What about the IC50 [2] of the same compound?
A: 450 nM and 370 nM

Q: Which results are given for `CCOc1cnccc1-c1nc2n(C3CCCC3)[nH]c(C(F)(F)F)c-2c(=O)n1` [Example 127c, 1-Cyclopentyl-3-trifluoromethyl-6-(3-ethoxy-4-pyridyl)pyrazolo[3,4-d]pyrimidin-4-one]?
A: change in vivo at 10 mg/kg [1]: -14%; Percent Inhibition cGMP-PDE I ([2]; 0.01 μM): 79%; Percent Inhibition cGMP-PDE I ([2]; 0.1 μM): 93%; IC50 [2]: 1.8 nM and 2.5 nM

Q: For `CC(C)(C)n1nc(Cc2ccccc2)c2c(=O)[nH]c(-c3ccncc3)nc21` [Example 90], which change in vivo at 1 mg/kg [1] is on record?
A: -6%

Q: For `Cc1nn(C(C)(C)C)c2nc(-c3ccncc3)[nH]c(=O)c12` [Example 93], which ED25 [1] is on record?
A: 6.5 mg/kg

Q: And the IC50 [2]?
A: 380 nM

Q: `Cc1nn(C2CCCC2)c2nc(-c3ccncc3)[nH]c(=O)c12` [Example 83] was tested. Which ED25 [1] did it give?
A: 1 mg/kg

Q: What about the IC50 [2] of the same compound?
A: 370 nM

Q: And the “change in MAP at threshold dose of the compound” value ([3]; 1 mg/kg, i.v., threshold dose)?
A: approximately 10 mmHg

Q: And the “change in MAP in response to nitroglycerin injection after pretreatment with the compound” value ([3]; nitroglycerin tolerant rats (n=12), compound 1 mg/kg i.v., then nitroglycerin 10 μg/kg)?
A: -35 mmHg

Q: For `COc1ccc(Cc2[nH]n(C(C)(C)C)c3nc(-c4ccncc4)nc(=O)c2-3)cc1OC` [Example 4e, 1-tert-Butyl-3-(3,4-dimethoxybenzyl)-6-(4-pyridyl) pyrazolo[3,4-d]pyrimidin-4-one], which change in vivo at 10 mg/kg [1] is on record?
A: -2%

Q: What about the “Percent Inhibition cGMP-PDE I” value ([2]; 0.01 μM) of the same compound?
A: 69%

Q: And the IC50 [2]?
A: 6 nM

Q: With `Cc1nn(C2CCCC2)c2nc(C3CCNCC3)[nH]c(=O)c12` [Example 109, 1-Cyclopentyl-3-methyl-6-(4-piperidinyl)-pyrazolo[3,4-d]-pyrimidin-4-one monohydrochloride. 1/2 hydrate] as the compound, how does the “Percent Inhibition cGMP-PDE I” value ([2]; 1 μM) read?
A: 7%

Q: And the “Percent Inhibition cGMP-PDE I” value ([2]; 10 μM)?
A: 13%

Q: `Cc1nn(C2CCCC2)c2nc(-c3cccnc3)[nH]c(=O)c12` [Example 98] was tested. Which ED25 [1] did it give?
A: 4.1 mg/kg

Q: And the IC50 [2]?
A: 560 nM

Q: `COc1cnccc1-c1nc2n(C(C)(C)C)[nH]c(Cc3ccncc3)c-2c(=O)n1` [Example 134b, 1-tert-Butyl-3-(4-pyridylmethyl)-6-(3-methoxy-4-pyridyl)pyrazolo[3,4-d]pyrimidin-4-one] was tested. Which “Percent Inhibition cGMP-PDE I” value ([2]; 0.01 μM) did it give?
A: 35%

Q: What about the “Percent Inhibition cGMP-PDE I” value ([2]; 0.1 μM) of the same compound?
A: 55%

Q: `Cc1ccccc1Cn1nc(C)c2c(=O)[nH]c(-c3ccncc3)nc21` [Example 87] was tested. Which IC50 [2] did it give?
A: 2700 nM and 3600 nM

Q: Which results are given for `CCc1nn(C2CCCC2)c2nc(-c3ccnc(OCCN4CCOCC4)c3)[nH]c(=O)c12` [Example 124c, hydrate]?
A: change in vivo at 3 mg/kg [1]: -14%; change in vivo at 10 mg/kg [1]: -24%; ED25 [1]: 10.1 mg/kg; Percent Inhibition cGMP-PDE I ([2]; 0.01 μM): 19%; Percent Inhibition cGMP-PDE I ([2]; 0.1 μM): 50%; Percent Inhibition cGMP-PDE I ([2]; 1 μM): 86%; IC50 [2]: 150 nM

Q: With `O=c1[nH]c(-c2ccncc2)nc2c1c(Br)nn2C1CCCC1` [Example 73] as the compound, how does the IC50 [2] read?
A: 1800 nM

Q: Which “Percent Inhibition cGMP-PDE I” value ([2]; 1 μM) does the source give for `Cc1[nH]n(C2CCCC2)c2nc(C3CCN(C(=O)C(F)(F)F)CC3)nc(=O)c1-2` [Example 116, 1-Cyclopentyl-3-methyl-6-(1-trifluoroacetyl-4-piperidinyl)pyrazolo[3,4-d]pyrimidin-4-one] here?
A: 34%

Q: Which change in vivo at 10 mg/kg [1] does the source give for `CC(C)(C)n1[nH]c(Cc2ccncc2)c2c(=O)nc(-c3ccncc3)nc1-2` [Example 123d, 1-tert-butyl-3-(4-pyridylmethyl)-6-(4-pyridyl)-pyrazolo[3,4-d]pyrimidin-4-one] here?
A: -7%

Q: What about the “Percent Inhibition cGMP-PDE I” value ([2]; 0.1 μM) of the same compound?
A: 55%

Q: And the “Percent Inhibition cGMP-PDE I” value ([2]; 1 μM)?
A: 90%

Q: What about the IC50 [2] of the same compound?
A: 120 nM

Q: With `CCc1[nH]n(C2CCCC2)c2nc(-c3cc(C)nc(Cl)c3)nc(=O)c1-2` [Example 117, 1-Cyclopentyl-3-ethyl-6-(2-chloro-6-methyl-4-pyridyl)pyrazolo[3,4-d]pyrimidin-4-one] as the compound, how does the “Percent Inhibition cGMP-PDE I” value ([2]; 1 μM) read?
A: 11%

Q: What about the “Percent Inhibition cGMP-PDE I” value ([2]; 10 μM) of the same compound?
A: 22%

Q: Which “Percent Inhibition cGMP-PDE I” value ([2]; 1 μM) does the source give for `Cc1nn(C2CCS(=O)(=O)C2)c2nc(-c3ccncc3)[nH]c(=O)c12` (stereo not drawn) [Example 18c, 1-(3-Tetrahydrothienyl-1,1-dioxide)-3-methyl-6-(4-pyridyl)pyrazolo[3,4-d]pyrimidin-4-one methanesulfonate] here?
A: 0%

Q: And the “Percent Inhibition cGMP-PDE I” value ([2]; 10 μM)?
A: 45%

Q: `CCCOc1cnccc1-c1nc2n(C3CCCC3)[nH]c(CC)c-2c(=O)n1` [Example 133c, 1-Cyclopentyl-3-ethyl-6-(3-propoxy-4-pyridyl)pyrazolo[3,4-d]pyrimidin-4-one] was tested. Which “Percent Inhibition cGMP-PDE I” value ([2]; 0.01 μM) did it give?
A: 82%

Q: `CCc1[nH]n(C2CCCC2)c2nc(-c3ccnc(C)c3)nc(=O)c1-2` [Example 118, 1-Cyclopentyl-3-ethyl-6-(2-methyl-4-pyridyl)pyrazolo[3,4-d]pyrimidin-4-one] was tested. Which “Percent Inhibition cGMP-PDE I” value ([2]; 0.1 μM) did it give?
A: 22%

Q: What about the “Percent Inhibition cGMP-PDE I” value ([2]; 1 μM) of the same compound?
A: 61%

Q: And the IC50 [2]?
A: 660 nM

Q: Which “Percent Inhibition cGMP-PDE I” value ([2]; 1 μM) does the source give for `Cc1[nH]n(Cc2ccc(C(=O)O)cc2)c2nc(-c3ccncc3)nc(=O)c1-2` [Example 111, 1-(4-Carboxylphenylmethyl)-3-methyl-6-(4-pyridyl)-pyrazolo[3,4-d]pyrimidin-4-one] here?
A: 0%

Q: And the “Percent Inhibition cGMP-PDE I” value ([2]; 10 μM)?
A: 24%

Q: What does the source list for `Cc1[nH]n(C2CCCC2)c2nc(-c3ccc4ncccc4c3)nc(=O)c1-2` [Example 14c, 1-Cyclopentyl-3-methyl-6-(6-quinolinyl)-pyrazolo [3,4-d]-pyrimidin-4-one]?
A: ED25 [1]: 7.8 mg/kg; IC50 [2]: 780 nM

Q: For `CCc1[nH]n(C2CCCC2)c2nc(-c3cccnc3)nc(=O)c1-2` [Example 137, 1-Cyclopentyl-3-ethyl-6-(3-pyridyl)pyrazolo[3,4-d]pyrimidin-4-one], which “Percent Inhibition cGMP-PDE I” value ([2]; 0.1 μM) is on record?
A: 27%

Q: And the “Percent Inhibition cGMP-PDE I” value ([2]; 1 μM)?
A: 64%

Q: For `CCc1[nH]n(C2CCCC2)c2nc(-c3ccnc4ccccc34)nc(=O)c1-2` [Example 7c, 1-Cyclopentyl-3-ethyl-6-(4-quinolinyl)-pyrazolo[3,4-d]pyrimidin-4-one], which IC50 [2] is on record?
A: 190 nM

Q: With `Cc1nn(CCCCCCCC(=O)O)c2nc(-c3ccncc3)[nH]c(=O)c12` [Example 84] as the compound, how does the IC50 [2] read?
A: 610 nM

Q: With `CCc1[nH]n(C(C)(C)C)c2nc(-c3ccncc3OC)nc(=O)c1-2` [Example 136, 1-tert-Butyl-3-ethyl-6-(3-methoxy-4-pyridyl)pyrazolo[3,4-d]pyrimidin-4-one] as the compound, how does the “Percent Inhibition cGMP-PDE I” value ([2]; 0.01 μM) read?
A: 28%

Q: And the “Percent Inhibition cGMP-PDE I” value ([2]; 0.1 μM)?
A: 39%

Q: What about the “Percent Inhibition cGMP-PDE I” value ([2]; 1 μM) of the same compound?
A: 73%
